From patent publication EP0908457B1, “3-(1,2-benzisothiazol- and isoxazol-5-Y1)-2,4(1H,3H)-pyrimidinedione or thione and 3-(1,2-benzisothiazol- and isoxazol-5-y1)-4(3H)-pyrimidinone or thione herbicidal agents” (BASF AKTIENGESELLSCHAFT, priority 1997, dated 1999) come the findings set out here.

What all share (format): in vivo
Assay [1] concerns Monochoria vaginalis, Presl. Kind of assay: Preemergence weed control under flooded paddy conditions, MOOVA (Monochoria). The conditions noted are these: preemergence, flooded paddy, rated three to four weeks after treatment.
A further assay has as its system Sagittaria pygmaea, L. Kind of assay: Preemergence weed control under flooded paddy conditions, SAGPY (Arrowhead (Pygmaea)). The conditions noted are these: preemergence, flooded paddy, rated three to four weeks after treatment.
The test system of another assay is Cyperus iria. Kind of assay: Preemergence weed control under flooded paddy conditions, CYPIR (Rice Flatsedge). The note with it: preemergence, flooded paddy, rated three to four weeks after treatment.
The subject of assay [2] is Cyperus serotinus, Rottb. Kind of assay: Preemergence weed control under flooded paddy conditions, CYPSE (Flatsedge). The conditions noted are these: preemergence, rated three to four weeks after treatment.
In assay [3] the test system is Echinochloa oryzoides (Ard.) Fritsch. As to the kind of experiment: Preemergence weed control under flooded paddy conditions, ECHORC (Watergrass (Calif.)). The conditions noted are these: preemergence, flooded paddy, rated three to four weeks after treatment.

As for `Cn1c(C(F)(F)F)cc(=O)n(-c2ccc3snc(COC(=O)c4ccc([N+](=O)[O-])o4)c3c2)c1=O` [Example 476, 2,4(1H,3H)-Pyrimidinedione, 3-[3-(hydroxymethyl)-1,2-benzisothiazol-5-yl]-1-methyl-6-(trifluoromethyl)-, 5-nitro-2-furoate (ester)], the MOOVA herbicidal rating was determined as 5.0 in assay [1] (0.0320 kg/ha), 6.0 in assay [1] (0.0620 kg/ha), 6.0 in assay [1] (0.1250 kg/ha) and 9.0 in assay [1] (0.2500 kg/ha). For the same molecule, the SAGPY herbicidal rating is 0.0 with Sagittaria pygmaea, L. (0.0320 kg/ha); 2.0 in the assay with Sagittaria pygmaea, L. (0.0620 kg/ha); 4.0 in the assay on Sagittaria pygmaea, L. (0.1250 kg/ha); 5.0 in the assay with Sagittaria pygmaea, L. (0.2500 kg/ha). For the same molecule, the CYPIR herbicidal rating came out at 4.0 with Cyperus iria (0.0320 kg/ha), 4.0 with Cyperus iria (0.0620 kg/ha), 9.0 in the assay with Cyperus iria (0.1250 kg/ha) and 9.0 in the assay on Cyperus iria (0.2500 kg/ha). The CYPSE herbicidal rating in assay [2] (0.0320 kg/ha) is 0.0; in assay [2] (0.1250 kg/ha), 3.0; in assay [2] (0.2500 kg/ha), 6.0. In addition, the ECHORC herbicidal rating in assay [3] (0.0320 kg/ha) is reported as 0.0; in assay [3] (0.0620 kg/ha), 2.0; in assay [3] (0.1250 kg/ha), 2.0; in assay [3] (0.2500 kg/ha), 3.0.
Turning to `Cn1c(C(F)(F)F)cc(=O)n(-c2ccc3snc(COC(=O)c4cccs4)c3c2)c1=O` [Example 477, 2,4(1H,3H)-Pyrimidinedione, 3-[3-(hydroxymethyl)-1,2-benzisothiazol-5-yl]-1-methyl-6-(trifluoromethyl)-, 2-thiophenecarboxylate (ester)], the MOOVA herbicidal rating in assay [1] (0.0320 kg/ha) turned out to be 3.0; in assay [1] (0.0620 kg/ha) it was 3.0; in assay [1] (0.1250 kg/ha), 6.0; in assay [1] (0.2500 kg/ha), 7.0. Besides, the SAGPY herbicidal rating in the assay on Sagittaria pygmaea, L. (0.0320 kg/ha) stood at 0.0; in the assay with Sagittaria pygmaea, L. (0.0620 kg/ha) it was 0.0; with Sagittaria pygmaea, L. (0.1250 kg/ha) it was 0.0; in the assay on Sagittaria pygmaea, L. (0.2500 kg/ha) it was 2.0. In addition, the CYPIR herbicidal rating is 4.0 in the assay with Cyperus iria (0.0320 kg/ha), 4.0 with Cyperus iria (0.0620 kg/ha), 5.0 in the assay on Cyperus iria (0.1250 kg/ha) and 6.0 in the assay on Cyperus iria (0.2500 kg/ha). Besides, the CYPSE herbicidal rating in assay [2] (0.0320 kg/ha), in assay [2] (0.0620 kg/ha) and in assay [2] (0.2500 kg/ha) was 3.0 in each case. Further, the ECHORC herbicidal rating in assay [3] (0.0320 kg/ha) was 0.0; in assay [3] (0.0620 kg/ha), 0.0; in assay [3] (0.1250 kg/ha) it was 2.0; in assay [3] (0.2500 kg/ha), 3.0.
As to `Cn1c(C(F)(F)F)cc(=O)n(-c2ccc3snc(COC(=O)c4cccnc4Cl)c3c2)c1=O` [Example 480, 2,4(1H,3H)-Pyrimidinedione, 3-[3-(hydroxymethyl)-1,2-benzisothiazol-5-yl]-1-methyl-6-(trifluoromethyl)-, 2-chloronicotinate (ester)], the MOOVA herbicidal rating in assay [1] (0.0320 kg/ha) stood at 7.0; in assay [1] (0.0620 kg/ha), 9.0; in assay [1] (0.1250 kg/ha), 9.0; in assay [1] (0.2500 kg/ha), 9.0. Further, the SAGPY herbicidal rating is on record as 0.0 with Sagittaria pygmaea, L. (0.0320 kg/ha); 3.0 with Sagittaria pygmaea, L. (0.0620 kg/ha); 5.0 with Sagittaria pygmaea, L. (0.1250 kg/ha); 6.0 with Sagittaria pygmaea, L. (0.2500 kg/ha). Also, the CYPIR herbicidal rating in the assay on Cyperus iria (0.0320 kg/ha) worked out at 6.0; with Cyperus iria (0.0620 kg/ha), 9.0; in the assay with Cyperus iria (0.1250 kg/ha) it was 9.0; in the assay on Cyperus iria (0.2500 kg/ha) it was 9.0. Moreover, the CYPSE herbicidal rating in assay [2] (0.0320 kg/ha) and in assay [2] (0.1250 kg/ha) was 3.0 in each case. Also, the ECHORC herbicidal rating was determined as 0.0 in assay [3] (0.0320 kg/ha), 2.0 in assay [3] (0.0620 kg/ha), 5.0 in assay [3] (0.1250 kg/ha) and 6.0 in assay [3] (0.2500 kg/ha).
As to `Cn1c(C(F)(F)F)cc(=O)n(-c2ccc3snc(COC(=O)c4ccc(Cl)nc4)c3c2)c1=O` [Example 481, 2,4(1H,3H)-Pyrimidinedione, 3-[3-(hydroxymethyl)-1,2-benzisothiazol-5-yl]-1-methyl-6-(trifluoromethyl)-, 6-chloronicotinate (ester)], the MOOVA herbicidal rating in assay [1] (0.0320 kg/ha) turned out to be 6.0; in assay [1] (0.0620 kg/ha), 7.0; in assay [1] (0.1250 kg/ha) it was 7.0; in assay [1] (0.2500 kg/ha), 9.0. Besides, the SAGPY herbicidal rating in the assay with Sagittaria pygmaea, L. (0.0320 kg/ha) came to 0.0; in the assay on Sagittaria pygmaea, L. (0.0620 kg/ha) it was 0.0; in the assay on Sagittaria pygmaea, L. (0.1250 kg/ha) it was 0.0. For the same molecule, the CYPIR herbicidal rating was found to be 0.0 with Cyperus iria (0.0320 kg/ha), 2.0 with Cyperus iria (0.0620 kg/ha), 6.0 in the assay on Cyperus iria (0.1250 kg/ha) and 9.0 in the assay with Cyperus iria (0.2500 kg/ha). The molecule also displayed a CYPSE herbicidal rating in assay [2] (0.2500 kg/ha) of 6.0. Also, the ECHORC herbicidal rating in assay [3] (0.0320 kg/ha) was determined as 0.0; in assay [3] (0.0620 kg/ha), 2.0; in assay [3] (0.1250 kg/ha) it was 9.0; in assay [3] (0.2500 kg/ha), 9.0.
Take `Cn1c(C(F)(F)F)cc(=O)n(-c2ccc3snc(COC(=O)C4CC4)c3c2)c1=O` [Example 496, 2,4(1H,3H)-Pyrimidinedione, 3-[3-(hydroxymethyl)-1,2-benzisothiazol-5-yl]-1-methyl-6-(trifluoromethyl)-, cyclopropanecarboxylate (ester)]: the MOOVA herbicidal rating in assay [1] (0.0320 kg/ha) is 0.0; in assay [1] (0.0620 kg/ha), 6.0; in assay [1] (0.1250 kg/ha) it was 6.0; in assay [1] (0.2500 kg/ha), 8.0. Moreover, the SAGPY herbicidal rating was 0.0 in the assay on Sagittaria pygmaea, L. (0.0320 kg/ha); 0.0 in the assay on Sagittaria pygmaea, L. (0.0620 kg/ha); 3.0 in the assay on Sagittaria pygmaea, L. (0.1250 kg/ha); 6.0 with Sagittaria pygmaea, L. (0.2500 kg/ha). In addition, the CYPIR herbicidal rating was 0.0 in the assay with Cyperus iria (0.0320 kg/ha), 7.0 in the assay on Cyperus iria (0.0620 kg/ha), 7.0 with Cyperus iria (0.1250 kg/ha) and 9.0 in the assay on Cyperus iria (0.2500 kg/ha). This molecule yielded a CYPSE herbicidal rating in assay [2] (0.2500 kg/ha) of 7.0. The ECHORC herbicidal rating in assay [3] (0.0320 kg/ha) turned out to be 4.0; in assay [3] (0.0620 kg/ha), 4.0; in assay [3] (0.1250 kg/ha) it was 6.0; in assay [3] (0.2500 kg/ha) it was 7.0.
For the molecule `Cn1c(C(F)(F)F)cc(=O)n(-c2ccc3snc(COC(=O)c4ccco4)c3c2)c1=O` [Example 497, 2,4(1H,3H)-Pyrimidinedione, 3-[3-(hydroxymethyl)-1,2-benzisothiazol-5-yl]-1-methyl-6-(trifluoromethyl)-, 2-furoate (ester)], the MOOVA herbicidal rating in assay [1] (0.0320 kg/ha) worked out at 6.0; in assay [1] (0.0620 kg/ha) it was 7.0; in assay [1] (0.1250 kg/ha), 9.0; in assay [1] (0.2500 kg/ha), 9.0. The SAGPY herbicidal rating stood at 0.0 in the assay with Sagittaria pygmaea, L. (0.0320 kg/ha); 0.0 with Sagittaria pygmaea, L. (0.0620 kg/ha); 2.0 in the assay on Sagittaria pygmaea, L. (0.1250 kg/ha); 6.0 with Sagittaria pygmaea, L. (0.2500 kg/ha). In addition, the CYPIR herbicidal rating is given as 5.0 with Cyperus iria (0.0320 kg/ha), 6.0 in the assay on Cyperus iria (0.0620 kg/ha), 9.0 in the assay with Cyperus iria (0.1250 kg/ha) and 9.0 in the assay with Cyperus iria (0.2500 kg/ha). Further, the figures for the CYPSE herbicidal rating in assay [2] (0.1250 kg/ha) and in assay [2] (0.2500 kg/ha) were 6.0 and 9.0, respectively. Besides, the ECHORC herbicidal rating in assay [3] (0.0320 kg/ha) was 0.0; in assay [3] (0.0620 kg/ha) it was 0.0; in assay [3] (0.1250 kg/ha), 4.0; in assay [3] (0.2500 kg/ha), 7.0.
